Consider three compounds from US12256735B2, “Insecticidal combinations” (UPL LTD, priority 2018, dated 2025).

The subject of data set [1] is mites in Brinjal. Kind of data set: Trial of efficacy on mites in Brinjal. The class given is in vivo. How it is done:
Trials were conducted to test the efficacy of the combination of Chlorantraniliprole+Bifenthrin+Bifenazate on mites in Brinjal: […]

The test system of data set [2] is Lucinodes arbonalis. The data set can be described thus: Trial of efficacy on Lucinodes arbonalis in Brinjal. It counts as in vivo. On the procedure: Trials were conducted to test the efficacy of the combination of Chlorantraniliprole+Bifenthrin+Bifenazate on Lucinodes arbonalis in Brinjal: […]

In the case of `Cc1c(COC(=O)[C@@H]2[C@H](/C=C(\Cl)C(F)(F)F)C2(C)C)cccc1-c1ccccc1` (racemic) [Bifenthrin], in data set [1] (dose 40 gm. ai/ha), the “% mortality 3 DAA” value was 75%, the “% mortality 7 DAA” value was 80%, the “% mortality 10 DAA” value turned out to be 75% and the “% mortality 14 DAA” value is on record as 65%. Besides, in data set [2] (dose 40 gm. ai/ha), the “% mortality 3 DAA” value is listed as 55%, the “% mortality 7 DAA” value is listed as 65%, the “% mortality 10 DAA” value was 53% and the “% mortality 14 DAA” value is given as 41%.
With `COc1ccc(-c2ccccc2)cc1NNC(=O)OC(C)C` [Bifenazate], in data set [1] (dose 150 gm. ai/ha), the “% mortality 3 DAA” value amounted to 65%, the “% mortality 7 DAA” value is recorded as 95.1%, the “% mortality 10 DAA” value came to 85% and the “% mortality 14 DAA” value is 75%. Also, in data set [2] (dose 150 gm. ai/ha), the “% mortality 3 DAA” value was 9.9%, the “% mortality 7 DAA” value is 12%, the “% mortality 10 DAA” value was found to be 10.9% and the “% mortality 14 DAA” value is 7.9%.
Turning to `CNC(=O)c1cc(Cl)cc(C)c1NC(=O)c1cc(Br)nn1-c1ncccc1Cl` [Chlorantraniliprole], in data set [1] (dose 30 gm. ai/ha), the “% mortality 3 DAA” value came out at 9.9%, the “% mortality 7 DAA” value is recorded as 8.9%, the “% mortality 10 DAA” value was 7.9% and the “% mortality 14 DAA” value is 10.9%. Further, in data set [2] (dose 30 gm. ai/ha), the “% mortality 3 DAA” value worked out at 80%, the “% mortality 7 DAA” value is 90.1%, the “% mortality 10 DAA” value was 89.1% and the “% mortality 14 DAA” value turned out to be 79%.
